One may read the inhibition as the relative decrease from the control value, in per cent.

Where two headings read alike, the source gives them in different places.

Here are results for one compound from patent US5952390A, “10-substituted 1,8-dihydroxy-9(10H) anthracenone pharmaceuticals” (Teva Pharmaceutical Industries Ltd., priority 1998, dated 1999).

The nature of data set [1]: Degradation of 2-deoxy-D-ribose (hydroxyl radical formation). To be noted: Table I (Addendum); controls: <0.1; 75 μM compound per method. The method, then: This assay followed generally the procedures of Gutteridge, J. M. C., "Reactivity of Hydroxyl and Hydroxyl-Like Radicals Discriminated by Release of Thiobarbituric Acid-Reactive Material from Deoxy Sugars, Nucleosides and Benzoate", Biochem. J., 224, 761-767 (1984) and of Laughton, M. J. et al., "Antioxidant and Prooxidant Actions of the Plant Phenolics Quercetin, Gossypol and Myricetin", Biochem. Pharmacol., 38, 2859-2865 (1989). The following reagents were added to glass tubes in the order and at the final concentrations stated. 0.3 ml KH2 PO4 -KOH buffer, pH 7.4 (30 mM), 0.2 ml H2 O bidist., 0.2 ml 2-deoxy-D-ribose (2 mM), 0.2 ml FeCl3 .cndot.6 H2 O (0.1 mM), 0.1 ml anthracenone derivative (75 μM). Stock solutions of the compounds were made up fresh before use. Appropriate blanks and controls with the vehicle (acetonitrile) were conducted. The final reaction volumes were standardized to 1.0 ml. The reaction mixtures were incubated for 2 h at 37° C. in a shaking water bath. 1.0 ml of 2.8% (w/v) trichloroacetic acid and 1.0 ml of 1% (w/v in 0.05 N NaOH) 2-thiobarbituric acid (TBA) were added, and the samples were heated at 100° C. for 15 min and then cooled in an ice bath (5 min). Then 2.0 ml of the reaction mixtures were treated with 0.05 ml of 36% (w/v) HCl and 2.0 ml of 1-butanol and the mixtures were vigorously shaken in a vortex mixer (Heidolph) for 15 s. The organic layer was separated by centrifugation at 3000 rpm (15 min) and the absorbance at 532 nm was measured against butanol. […]
The biological assay methods were as follows: LDH release as described in Muller K, Huang H-S, Wiegrebe W, J. Med. Chem. 39, 3132-3138 (1996); bovine PMNL 5-LO assay as described in Muller K, Gurster D, Piwek S, Wiegrebe W, J. Med. Chem. 36, 4099-4107 (1993); and degradation of 2-deoxy-D-ribose as described in Muller K, Gurster D, Biochem. Pharmacol. 46, 1695-1704 (1993). […] Extracellular LDH activity was measured using the UV method with pyruvate and NADH and is expressly in mU/ml. […]

The nature of data set [2]: Reducing activity toward DPPH. Conditions: Table I (Addendum); equimolar amount of test compound. The procedure: This assay followed generally the procedures of Blois, M. S., "Antioxidant Determinations by the Use of a Stable Free Radical", Nature, 181, 1199-1200 (1958) and Kato, K. et al., "Studies on Scavengers of Active Oxygen Species. 1. Synthesis and Biological Activity of 2-O-Alkylascorbic Acids", J. Med. Chem., 31, 793-798 (1988). In time studies, 1 ml of test compound solution (10^-4 M) was added to 1 ml of DPPH solution (10^-4 M), each in acetone/PBS (1+1 V/V), and the reduction of DPPH was followed spectrophotometrically at 516 nm. Plots of the reciprocal of DPPH concentrations against time gave straight lines, and the second-orderrate constants were obtained from the slopes and are expressed as mean values (n=3-6). In the cases where DPPH was very fast approximate values are given and expressed as kDPPH >100 or kDPPH >>100M^-1s^-1.
Because a radical scavenging antioxidant reacts rapidly with the stable free radical 2,2-diphenyl-1-picrylhydrazyl (DPPH), Blois, M. S., "Antioxidant Determination by the Use of a Stable Free Radical", Nature, 181, 1199-1200 (1958); Kato, K. et al., "Studies on Scavengers of Active Oxygen Species. I. Synthesis and Biological Activity of 2-O-Alkylascorbic Acids", J. Med. Chem., 31, 793-798 (1988), the reactivities of the new compounds with DPPH were determined by decrease in absorbance at 516 nm.
Background: The DPPH test is a chemical assay of radical scavenging.

Another data set deals with skin. To be noted: topical/therapeutic application; cited from earlier work.
The target in a further data set is T1, 5-LO in bovine PMNL (Bos taurus, UniProt F1MQ78).
T1 construct: endogenous in cells; host or cells: polymorphonuclear leukocytes isolated from bovine blood
T1 sequence (F1MQ78 1-674): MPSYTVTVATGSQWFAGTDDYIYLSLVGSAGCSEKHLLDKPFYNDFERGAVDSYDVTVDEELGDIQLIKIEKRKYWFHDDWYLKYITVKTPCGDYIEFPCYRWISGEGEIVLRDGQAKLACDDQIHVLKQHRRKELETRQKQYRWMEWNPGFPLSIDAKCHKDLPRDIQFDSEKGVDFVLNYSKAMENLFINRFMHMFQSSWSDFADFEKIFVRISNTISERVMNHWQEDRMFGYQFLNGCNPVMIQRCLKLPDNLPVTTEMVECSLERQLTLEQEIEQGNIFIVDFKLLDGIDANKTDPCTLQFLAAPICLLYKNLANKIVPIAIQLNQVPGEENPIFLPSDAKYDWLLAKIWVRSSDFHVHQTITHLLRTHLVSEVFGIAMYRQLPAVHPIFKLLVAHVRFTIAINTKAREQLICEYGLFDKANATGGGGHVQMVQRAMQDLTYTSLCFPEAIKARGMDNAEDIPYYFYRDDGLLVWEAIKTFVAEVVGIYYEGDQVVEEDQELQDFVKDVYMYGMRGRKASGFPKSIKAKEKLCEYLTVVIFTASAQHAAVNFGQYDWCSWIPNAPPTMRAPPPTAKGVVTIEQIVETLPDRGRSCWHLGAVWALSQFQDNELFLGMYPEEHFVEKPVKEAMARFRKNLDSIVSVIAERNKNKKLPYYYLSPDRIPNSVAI
Briefly: Bovine PMNL 5-lipoxygenase assay (inhibition of 5-HETE and LTB4 biosynthesis). It counts as cell-based. Conditions: at 30 μM.

Regarding `CCCC(=O)C1c2cccc(O)c2C(=O)c2c(O)cccc21` [Butantrone, 10-Butyryl-Dithranol], the deoxyribose degradation in data set [1] is given as 0.24 ± 0.03 μmol MDA/mmol. Further, the kDPPH in data set [2] came to 7.0 ± 0.6 M⁻¹ s⁻¹. In addition, the “irritation, in words” value in the data set with skin was “commonly elicits a widespread and delayed irritation effect”. For the same compound, the inhibition at 30 µM was found to be 38% at 5-LO in bovine PMNL (PMNL, Table I (Addendum), read-out: 5-LO percent inhibition (value in parentheses)) and 38% at 5-LO in bovine PMNL (bovine PMNL, read-out: inhibition at 30 μM).
